Experiments:
[1] = target: hemolysin alpha from Staphylococcus aureus (Staphylococcus aureus, UniProt P09616); assay: cell-based
[2] = target: S. aureus Alpha hemolysin (Staphylococcus aureus, UniProt P09616); assay: cell-based
Chain of S. aureus Alpha hemolysin (P09616 27-319 limits assumed): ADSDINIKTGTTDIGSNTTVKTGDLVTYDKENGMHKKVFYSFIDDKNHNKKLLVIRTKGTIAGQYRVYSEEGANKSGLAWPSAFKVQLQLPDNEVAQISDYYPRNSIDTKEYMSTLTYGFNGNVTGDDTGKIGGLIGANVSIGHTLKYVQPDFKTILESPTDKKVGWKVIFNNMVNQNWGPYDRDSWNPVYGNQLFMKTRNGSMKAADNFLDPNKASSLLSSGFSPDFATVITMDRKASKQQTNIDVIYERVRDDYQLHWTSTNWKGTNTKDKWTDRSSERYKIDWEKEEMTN

Chain of hemolysin alpha from Staphylococcus aureus (P09616 27-319 limits assumed): as above

| Compound | IC50 [1] | IC50 [2] |
| --- | --- | --- |
| Cc1cc2[nH]c(=O)c(=O)[nH]c2nc1S(=O)(=O)Nc1ccc(-c2cncc(Cl)c2)c(Cl)c1 [Compound 11, N-(3-chloro-4-(5-chloropyridin-3-yl)phenyl)-7-methyl-2,3-dioxo-1,2,3,4-tetrahydropyrido[2,3-b]pyrazine-6-sulfonamide] | 100 to 1000 nM | 100 to 1000 nM |
| Cc1cc2[nH]c(=O)c(=O)[nH]c2nc1S(=O)(=O)Nc1ccc(OC(F)(F)F)cc1 [Compound 22, 7-methyl-2,3-dioxo-N-(4-(trifluoromethoxy)phenyl)-1,2,3,4-tetrahydropyrido[2,3-b]pyrazine-6-sulfonamide] | < 30 nM | < 30 nM |
| COc1ccc(-c2ccc(NS(=O)(=O)c3nc4[nH]c(=O)c(=O)[nH]c4cc3C)cc2Cl)cc1F [Compound 14, N-(2-chloro-3′-fluoro-4′-methoxy-[1,1′-biphenyl]-4-yl)-7-methyl-2,3-dioxo-1,2,3,4-tetrahydropyrido[2,3-b]pyrazine-6-sulfonamide] | 30 to 100 nM | 100 to 1000 nM |
| Cc1cc(NS(=O)(=O)c2nc3[nH]c(=O)c(=O)[nH]c3cc2C)ccc1-c1ccc(F)cc1 [Compound 33, N-(4′-fluoro-2-methyl-[1,1′-biphenyl]-4-yl)-7-methyl-2,3-dioxo-1,2,3,4-tetrahydropyrido[2,3-b]pyrazine-6-sulfonamide] | 100 to 1000 nM | 30 to 100 nM |
